According to ChEMBL document CHEMBL1201862, “PubChem BioAssay data set” (2004):
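Step 1: Grow cells in 96-well plates. Step 2: Expose to compound for 48 hours at 5 concentrations. Step 3: Interpolate endpoints linearly; if unreached, use highest concentration. GI50: concentration for 50% inhibition of growth.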 Activity calls are given as the source filed them. Rule as the data show it: active = GI50 up to about 1.1 µM and inactive = higher.

What was measured:
Assay in all cases: NCI-60 cell line screen, 48 h
A549 = test system: A549
HCC 2998 = test system: HCC 2998
HOP-62 = test system: HOP-62
HOP-92 = test system: HOP-92
HT-29 = test system: HT-29
LOX IMVI = test system: LOX IMVI
MOLT-4 = test system: MOLT-4
Malme-3M = test system: Malme-3M
NCI-H226 = test system: NCI-H226
NCI-H23 = test system: NCI-H23
OVCAR-3 = test system: OVCAR-3
OVCAR-4 = test system: OVCAR-4
SK-MEL-2 = test system: SK-MEL-2
SK-OV-3 = test system: SK-OV-3
SW-620 = test system: SW-620
UACC-257 = test system: UACC-257
UACC-62 = test system: UACC-62
A498 = test system: A498
HL-60 = test system: HL-60
NCI-H522 = test system: NCI-H522

SMILES	GI50 (A549)	GI50 (HCC 2998)	GI50 (HOP-62)	GI50 (HOP-92)	GI50 (HT-29)	GI50 (LOX IMVI)	GI50 (MOLT-4)	GI50 (Malme-3M)	GI50 (NCI-H226)	GI50 (NCI-H23)	GI50 (OVCAR-3)	GI50 (OVCAR-4)	GI50 (SK-MEL-2)	GI50 (SK-OV-3)	GI50 (SW-620)	GI50 (UACC-257)	GI50 (UACC-62)	GI50 (A498)	GI50 (HL-60)	GI50 (NCI-H522)
Brc1ccc2c(c1)[C@H]1CCc3c([nH]c4ccccc34)[C@H]1N2	14.8 µM (inactive)	12.9 µM (inactive)	10.9 µM (inactive)	13.3 µM (inactive)	14.1 µM (inactive)	4.38 µM (inactive)	2.2 µM (inactive)	10.7 µM (inactive)	12.1 µM (inactive)	12.4 µM (inactive)	10.6 µM (inactive)	13 µM (inactive)	16.6 µM (inactive)	14.3 µM (inactive)	14.4 µM (inactive)	12.8 µM (inactive)	11.5 µM (inactive)			
COC(=O)/C=C\n1ncc(=O)[nH]c1=O	> 100 µM (inactive)	> 100 µM (inactive)	> 100 µM (inactive)	> 100 µM (inactive)	> 100 µM (inactive)		> 100 µM (inactive)	> 100 µM (inactive)	> 100 µM (inactive)	> 100 µM (inactive)	> 100 µM (inactive)	> 100 µM (inactive)	> 100 µM (inactive)		> 100 µM (inactive)	> 100 µM (inactive)		> 100 µM (inactive)	> 100 µM (inactive)	52.1 µM (inactive)
C=C(C)C1Cc2c(c3ccccc3n(C)c2=O)O1 (centres undefined)			< 0.01 µM (active)	93.3 µM (inactive)	> 100 µM (inactive)	> 100 µM (inactive)	> 100 µM (inactive)	> 100 µM (inactive)	> 100 µM (inactive)	> 100 µM (inactive)	> 100 µM (inactive)		> 100 µM (inactive)	> 100 µM (inactive)	> 100 µM (inactive)		> 100 µM (inactive)	> 100 µM (inactive)	> 100 µM (inactive)	> 100 µM (inactive)
CC(=O)Nc1ccc(Sc2nnc(NC(C)=O)s2)cc1	> 100 µM (inactive)	> 100 µM (inactive)	> 100 µM (inactive)				> 100 µM (inactive)					> 100 µM (inactive)		> 100 µM (inactive)	> 100 µM (inactive)	> 100 µM (inactive)			> 100 µM (inactive)	> 100 µM (inactive)
CN(C)CCCNC(=O)N/N=C\c1cccc2ccccc12	> 10 µM (inactive)	> 10 µM (inactive)	> 10 µM (inactive)	> 10 µM (inactive)	> 10 µM (inactive)	> 10 µM (inactive)	> 10 µM (inactive)	> 10 µM (inactive)				> 10 µM (inactive)		> 10 µM (inactive)	> 10 µM (inactive)		> 10 µM (inactive)	> 10 µM (inactive)	> 10 µM (inactive)	> 10 µM (inactive)
CN(CCO)/N=N/c1[nH]cnc1C(N)=O	> 100 µM (inactive)	> 100 µM (inactive)	74 µM (inactive)	77.8 µM (inactive)	> 100 µM (inactive)	26.2 µM (inactive)	> 100 µM (inactive)	52.8 µM (inactive)	> 100 µM (inactive)	> 100 µM (inactive)	> 100 µM (inactive)	> 100 µM (inactive)	22.5 µM (inactive)	30.9 µM (inactive)	69.3 µM (inactive)	99.8 µM (inactive)	83.8 µM (inactive)	> 100 µM (inactive)	79.3 µM (inactive)	> 100 µM (inactive)
CN(C)CCNC(=O)c1cccc2c(=O)c3ccccc3oc12	39 µM (inactive)	60 µM (inactive)	38.5 µM (inactive)	20.1 µM (inactive)	25.4 µM (inactive)	20.7 µM (inactive)	41.3 µM (inactive)	25 µM (inactive)	25.2 µM (inactive)	35.3 µM (inactive)	37.8 µM (inactive)	34.5 µM (inactive)	35.9 µM (inactive)	25.1 µM (inactive)	34.4 µM (inactive)	26.9 µM (inactive)	32.2 µM (inactive)	21.1 µM (inactive)	29.2 µM (inactive)	
COc1cc(C2c3cc4c(cc3[C@@H](Nc3ccccc3)C3COC(=O)[C@H]23)OCO4)cc(OC)c1O (some centres undefined)	0.0156 µM (active)	1.23 µM (inactive)	0.155 µM (active)	0.857 µM (active)	1.23 µM (inactive)	0.414 µM (active)	< 0.01 µM (active)	1.41 µM (inactive)	0.28 µM (active)	0.238 µM (active)	2.48 µM (inactive)	5.6 µM (inactive)	2.79 µM (inactive)	0.845 µM (active)	0.792 µM (active)	0.615 µM (active)	0.388 µM (active)	0.221 µM (active)	0.14 µM (active)	1.24 µM (inactive)
